Assay results reported in patent publication US4659710A, “1,7-Naphthyridine derivatives and pharmaceutical compositions” (SS Pharmaceutical Co., Ltd., priority 1985, dated 1987).

Key:
[1] = system: spontaneously-beating atrial muscle; assay: Cardiotonic effects: contractile force and heart rate of isolated spontaneously beating atria; parameters: species or system Hartley male guinea pig; conditions: cumulative
Description: The heart of a Hartley male guinea pig having a body weight of 500-800 g was removed. Its atrial muscles were isolated in Krebs-Henseleit's solution. A spontaneously-beating atrial muscle was suspended, in a bath containing 20 ml of Krebs-Henseleit's solution gassed with 95% O2 +5% CO2 at 32° C. Thereafter, the contractile force and its heart rate were measured. After stabilization, test compounds which were dissolved in a small amount of 1N hydrochloric acid or 0.1N hydrochloric acid and then diluted with a physiological saline, were administered cumulatively ([…]) to evaluate effects on the contractile force. The maximum percent change in increase of the contractile force induced by test compounds was determined and regarded as an index for cardiotonic (positive inotropic) effects. Heart rate increasing or decreasing effects (positive or negative chronotropism) were also observed.

[2] = system: ouabain-induced arrhythmia; assay: Antiarrhythmic effects: amount of ouabain required to induce arrhythmia; type: in vivo, Hartley male guinea pigs; conditions: 10 mg/kg i.v., ouabain infused at 4 μg/kg/min; for amount of ouabain required to induce unequal intervals of R-R wave: control 59.2; for amount of ouabain required to induce ventricular extrasystole or A-V block: control 80.5; for amount of ouabain required to induce ventricular extrasystole or A-V block / amount of ouabain required to induce ventricular fibrillation / amount of ouabain required to induce cardiac arrest: in µg/kg (unit assumed); for amount of ouabain required to induce ventricular fibrillation: control 170.0; for amount of ouabain required to induce cardiac arrest: control 246.6
Description: Using a group of five Hartley male guinea pigs (body weights: 530-990 g), their electrocardiograms were recorded from a limbic lead II under anesthesia with urethane 1.2 g/kg i.p. to investigate the antiarrhythmic effects. Namely, each test compound dissolved in 0.1N hydrochloric acid and diluted with a physiological saline was intravenously administered at a dose of 10 mg/kg. Immediately after the administration of the test compound, ouabain was continuously infused at a rate of 4 μg/kg/min through a polyethylene cannula inserted in the jugular vein of the guinea pigs so as to induce arrhythmia. The antiarrhythmic effects were judged from the amount of ouabain required to induce unequal intervals of R-R wave, ventricular extrasystole or A-V block, ventricular fibrillation and cardiac arrest.

[3] = system: carrageenan-induced swelling of the right hind paw; assay: Anti-inflammatory effects: inhibition of carrageenan-induced hind paw swelling; type: in vivo, Wistar rats; conditions: oral, 60 min before carrageenan, foot volume 3 hours later
Description: After fasting a group of five Wistar rats of 6 weeks old for 18 hours, each test compound dissolved or suspended in a 0.5% solution of sodium carboxymethylcellulose (CMC-Na) was administered orally. Sixty minutes after the administration of the test compound, 0.1 ml of a 1% carrageenan solution was injected into subplanter surface of the right hind paw of each rat. The foot volume (A) was measured 3 hours later. From the foot volume (B) before the administration of carrageenan, the percent swelling ((A-B)/B×100) was calculated and compared with those of control rats.
Inhibition (%)= [formula]

Acute toxicity, mouse = conditions: in vivo, po
Acute toxicity, rat = conditions: in vivo, po

Row | SMILES | Chronotropy, % of Control (in parentheses) ([1]; 3 × 10^-5 g/ml) | Inotropy, % of Control ([1]; 3 × 10^-5 g/ml) | Chronotropy, % of Control (in parentheses) ([1]; 3 × 10^-6 g/ml) | Inotropy, % of Control ([1]; 3 × 10^-6 g/ml) | Chronotropy, % of Control (in parentheses) ([1]; 10^-4 g/ml) | Inotropy, % of Control ([1]; 10^-4 g/ml) | Chronotropy, % of Control (in parentheses) ([1]; 10^-5 g/ml) | Inotropy, % of Control ([1]; 10^-5 g/ml) | Chronotropy, % of Control (in parentheses) ([1]; 10^-6 g/ml) | Inotropy, % of Control ([1]; 10^-6 g/ml) | LD50 (Acute toxicity, mouse) | further results
1 | CCOc1nc(NC(C)=O)cc2cccnc12 [compound 34] | 25.7% | 38.7% | 10.3% | 13.3% | 46.0% | 89.2% | 18.5% | 24.9% | 5.3% | 6.3% | – | –
2 | Nc1cc2cccnc2c(N2CCN(CCO)CC2)n1 [Compound No. 4] | – | – | – | – | – | – | – | – | – | – | > 1000 mg/kg | amount of ouabain required to induce unequal intervals of R-R wave [2]: 59.1 µg/kg; amount of ouabain required to induce ventricular extrasystole or A-V block [2]: 78.9; amount of ouabain required to induce ventricular fibrillation [2]: 216.5; amount of ouabain required to induce cardiac arrest [2]: 277.5; Inhibition (%) ([3]; 30 mg/kg): 54.0%
3 | CCCCCCCC(=O)Nc1cc2cccnc2c(N2CCN(CCO)CC2)n1 [compound 25] | – | – | – | – | – | – | – | – | – | – | – | Inhibition (%) ([3]; 10 mg/kg): 44.6%
4 | CNc1nc(NC(C)=O)cc2cccnc12 [compound 5] | 8.6% | 29.0% | 3.6% | 8.6% | 13.0% | 59.1% | 5.9% | 12.9% | 1.7% | 4.7% | – | –
5 | CC(=O)Nc1cc2cccnc2c(NCCCO)n1 [Compound No. 8] | 6.8% | 33.4% | 2.7% | 9.6% | 12.9% | 64.1% | 4.0% | 16.4% | 1.1% | 4.1% | – | –
6 | CC(=O)Nc1cc2cccnc2c(N2CCN(CCO)CC2)n1 [Compound No. 22, 6-acetamido-8-[4-(2-hydroxyethyl)-1-piperazinyl]-1,7-naphthyridine] | – | – | – | – | – | – | – | – | – | – | 1600 mg/kg | amount of ouabain required to induce unequal intervals of R-R wave [2]: 69.6 µg/kg; amount of ouabain required to induce ventricular extrasystole or A-V block [2]: 109.6; amount of ouabain required to induce ventricular fibrillation [2]: 285.4; amount of ouabain required to induce cardiac arrest [2]: 399.3; LD50 (Acute toxicity, rat): > 3000 mg/kg; Inhibition (%) ([3]; 10 mg/kg): 42.4%
7 | CC(=O)Nc1cc2cccnc2c(N(C)C)n1 [Compound No. 16] | 7.0% | 36.8% | 1.6% | 4.5% | 19.0% | 103.2% | 3.3% | 12.5% | – | – | > 500 mg/kg | –
8 | CC(=O)Nc1cc2cccnc2c(NCc2cccnc2)n1 [Compound No. 13] | 1.9% | 52.3% | 1.6% | 8.7% | -11.8% | 92.9% | 3.1% | 24.6% | 0.2% | 2.6% | > 500 mg/kg | –
9 | Nc1cc2cccnc2c(N2CCOCC2)n1 [Compound No. 3, 6-amino-8-morpholino-1,7-naphthyridine] | – | – | – | – | – | – | – | – | – | – | – | Inhibition (%) ([3]; 100 mg/kg): 55.0%
10 | CC(=O)Nc1cc2cccnc2c(NCC(O)CO)n1 (stereo not drawn) [compound 9] | – | – | – | – | – | – | – | – | – | – | – | Inhibition (%) ([3]; 30 mg/kg): 27.1%
11 | CC(=O)Nc1cc2cccnc2c(N2CCN(C)CC2)n1 [compound 19] | – | – | – | – | – | – | – | – | – | – | – | amount of ouabain required to induce unequal intervals of R-R wave [2]: 68.9 µg/kg; amount of ouabain required to induce ventricular extrasystole or A-V block [2]: 146.0; amount of ouabain required to induce cardiac arrest [2]: 392.1
